Test results reported in PubChem BioAssay (NCI).
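Here, GI50 denotes the concentration required for 50% inhibition of growth. TGI: total growth inhibition.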

Columns and labels:
Assay in all cases: NCI-60 cell line screen, 384-well format
COLO 205 colon = tested on: COLO 205 colon
HCC-2998 colon = tested on: HCC-2998 colon
TK-10 renal = tested on: TK-10 renal
A549 NSCLC = tested on: A549 NSCLC
MALME-3M melanoma = tested on: MALME-3M melanoma
OVCAR-4 ovarian = tested on: OVCAR-4 ovarian
NCI-H23 lung = tested on: NCI-H23 lung
HS 578T breast = tested on: HS 578T breast
SK-OV-3 ovarian = tested on: SK-OV-3 ovarian
NCI-H460 NSCLC = tested on: NCI-H460 NSCLC
RPMI-8226 leukemia = tested on: RPMI-8226 leukemia
786-0 renal = tested on: 786-0 renal
SK-MEL-2 melanoma = tested on: SK-MEL-2 melanoma
BT-549 breast = tested on: BT-549 breast
A498 renal = tested on: A498 renal
HCT-116 colon = tested on: HCT-116 colon
SF-539 CNS = tested on: SF-539 CNS
M14 melanoma = tested on: M14 melanoma
NCI-H322M lung = tested on: NCI-H322M lung
K-562 leukemia = tested on: K-562 leukemia
PC-3 prostate = tested on: PC-3 prostate
CCRF-CEM leukemia = tested on: CCRF-CEM leukemia
DU-145 prostate = tested on: DU-145 prostate
SF-268 CNS = tested on: SF-268 CNS
SK-MEL-5 melanoma = tested on: SK-MEL-5 melanoma
HCT-15 colon = tested on: HCT-15 colon
OVCAR-3 ovarian = tested on: OVCAR-3 ovarian
UACC-62 melanoma = tested on: UACC-62 melanoma

Question: Which results are given for `CC(C)NC(=O)OCc1c(COC(=O)NC(C)C)c(-c2ccc(Cl)c(Cl)c2)n2c1SCC2`?
Answer: GI50 (COLO 205 colon): 8.39 µM; TGI (COLO 205 colon): 21.7 µM; GI50 (HCC-2998 colon): 0.687 µM; TGI (HCC-2998 colon): 14.7 µM; GI50 (TK-10 renal): 1.63 µM; TGI (TK-10 renal): 6.15 µM; GI50 (A549 NSCLC): 10.2 µM; TGI (A549 NSCLC): 23.9 µM; GI50 (MALME-3M melanoma): 5.06 µM; TGI (MALME-3M melanoma): 17.8 µM; GI50 (OVCAR-4 ovarian): 3.3 µM; TGI (OVCAR-4 ovarian): 17.5 µM; GI50 (NCI-H23 lung): 1.83 µM; TGI (NCI-H23 lung): 4.26 µM; GI50 (HS 578T breast): 4.85 µM; TGI (HS 578T breast): 17.3 µM; GI50 (SK-OV-3 ovarian): 3.26 µM; TGI (SK-OV-3 ovarian): 11.4 µM; GI50 (NCI-H460 NSCLC): 2.56 µM; TGI (NCI-H460 NSCLC): 11.4 µM; GI50 (RPMI-8226 leukemia): 1.79 µM; TGI (RPMI-8226 leukemia): 5.03 µM; GI50 ([…]-0 renal): 4.31 µM; TGI (786-0 renal): 15.8 µM; GI50 (SK-MEL-2 melanoma): 1.83 µM; TGI (SK-MEL-2 melanoma): 4.49 µM; GI50 (BT-549 breast): 3.92 µM; TGI (BT-549 breast): 15.3 µM; GI50 (A498 renal): 0.386 µM; TGI (A498 renal): 1.76 µM; GI50 (HCT-116 colon): 4 µM; TGI (HCT-116 colon): 19.8 µM; GI50 (SF-539 CNS): 5.16 µM; TGI (SF-539 CNS): 18.7 µM; GI50 (M14 melanoma): 3.75 µM; TGI (M14 melanoma): 14.1 µM; GI50 (NCI-H322M lung): 7.6 µM; TGI (NCI-H322M lung): 21.7 µM; GI50 (K-562 leukemia): 10.3 µM; TGI (K-562 leukemia): 22.6 µM; GI50 (PC-3 prostate): 10.8 µM; TGI (PC-3 prostate): 25.5 µM; GI50 (CCRF-CEM leukemia): 2.07 µM; TGI (CCRF-CEM leukemia): 4.95 µM; GI50 (DU-145 prostate): 5.54 µM; TGI (DU-145 prostate): 20.7 µM; GI50 (SF-268 CNS): 3.18 µM; TGI (SF-268 CNS): 10.3 µM; GI50 (SK-MEL-5 melanoma): 4.33 µM; TGI (SK-MEL-5 melanoma): 17.8 µM; GI50 (HCT-15 colon): 5.97 µM; TGI (HCT-15 colon): 19.8 µM; GI50 (OVCAR-3 ovarian): 2.99 µM; TGI (OVCAR-3 ovarian): 14.1 µM; GI50 (UACC-62 melanoma): 1.68 µM
